Source: the supplement of paper PMC13380429

Assays:
Settings in all cases: 72 h
Vero E6 [1] = test: drug sensitivity score (DSS) for viability; higher = more toxic; extreme values may be limits of the assay
Calu-3 [2] = test: as above
Caco-2 [3] = test: as above
HepG2 [4] = test: as above
Vero E6 [5] = test: relative viability EC50 (midpoint between 100% and the lowest measured viability); higher = less toxic
Calu-3 [6] = test: as above
Caco-2 [7] = test: as above
HepG2 [8] = test: as above
Vero E6 [9] = test: cell viability relative to DMSO; higher = less toxic
Calu-3 [10] = test: as above
Caco-2 [11] = test: as above
HepG2 [12] = test: as above
U2OS [13] = test: drug sensitivity score (DSS) for viability; higher = more toxic; extreme values may be limits of the assay
U2OS [14] = test: cell viability relative to DMSO; higher = less toxic

Structure (SMILES)	drug sensitivity score (Vero E6 [1])	drug sensitivity score (Calu-3 [2])	drug sensitivity score (Caco-2 [3])	drug sensitivity score (HepG2 [4])	relative viability EC50 (Vero E6 [5]) [µM]	relative viability EC50 (Calu-3 [6]) [µM]	relative viability EC50 (Caco-2 [7]) [µM]	relative viability EC50 (HepG2 [8]) [µM]	cell viability (Vero E6 [9]; 1 nM) [%]	cell viability (Vero E6 [9]; 10 nM) [%]	cell viability (Vero E6 [9]; 100 nM) [%]	cell viability (Vero E6 [9]; 1000 nM) [%]	cell viability (Vero E6 [9]; 10000 nM) [%]	cell viability (Calu-3 [10]; 1 nM) [%]	cell viability (Calu-3 [10]; 10 nM) [%]	cell viability (Calu-3 [10]; 100 nM) [%]	cell viability (Calu-3 [10]; 1000 nM) [%]	cell viability (Calu-3 [10]; 10000 nM) [%]	cell viability (Caco-2 [11]; 1 nM) [%]	cell viability (Caco-2 [11]; 10 nM) [%]	cell viability (Caco-2 [11]; 100 nM) [%]	cell viability (Caco-2 [11]; 1000 nM) [%]	cell viability (Caco-2 [11]; 10000 nM) [%]	cell viability (HepG2 [12]; 1 nM) [%]	cell viability (HepG2 [12]; 10 nM) [%]	cell viability (HepG2 [12]; 100 nM) [%]	cell viability (HepG2 [12]; 1000 nM) [%]	cell viability (HepG2 [12]; 10000 nM) [%]	drug sensitivity score (U2OS [13])	cell viability (U2OS [14]; 1 nM) [%]	cell viability (U2OS [14]; 10 nM) [%]	cell viability (U2OS [14]; 100 nM) [%]	cell viability (U2OS [14]; 1000 nM) [%]	cell viability (U2OS [14]; 10000 nM) [%]
CC(C)(C)c1ccc(CN(Cc2cccc(OCC(=O)O)c2)S(=O)(=O)c2cccnc2)cc1 [evatanepag]	0	0	0	0	> 10	> 10	> 10	> 10	108	104	102	97.4	93.5	110	101	94.2	99.7	94.9	98.5	97.8	101	102	101	99.1	108	91.7	94.3	93.6	–	–	–	–	–	–
NS(=O)(=O)c1cc(C(=O)O)c(NCc2ccco2)cc1Cl [furosemide]	0	0	0	0	> 10	> 10	> 10	> 10	99.8	90.5	97.1	89.6	105	98.1	95.3	103	81.5	104	104	95.8	102	106	112	121	87.5	113	103	120	–	–	–	–	–	–
NCCNC(=O)c1ccc(Cl)cn1 [lazabemide]	0	–	0	0	> 10	–	> 10	> 10	95.6	99.2	90.8	91	104	–	–	–	–	–	98.1	95.6	101	103	101	99.6	96.4	113	114	125	–	–	–	–	–	–
C#C[C@]1(OC(=O)CCCCCC)CC[C@H]2[C@@H]3CCC4=CC(=O)CC[C@@H]4[C@H]3CC[C@@]21C [norethisterone-enanthate]	0.6	3.2	2.8	6.4	> 10	–	–	2.06	96.6	97.1	98.8	94.5	84.2	100	104	90	94.1	57.1	99.9	102	99.8	95.8	58.5	95.9	95.7	96.9	88.8	19.2	1.6	98.5	100	100	98.8	68.1
CCCN1CC(NS(=O)(=O)N(CC)CC)CC2Cc3c(O)cccc3CC21 (centres undefined) [quinagolide]	–	0.3	0	–	–	> 10	> 10	–	–	–	–	–	–	85.9	110	95.8	97.5	86.1	107	104	106	98.9	96.3	–	–	–	–	–	–	–	–	–	–	–
CC(=O)NS(=O)(=O)c1ccc(N)cc1 [sulfacetamide]	0	0	–	0	–	–	–	–	–	–	–	–	–	–	–	–	–	–	–	–	–	–	–	–	–	–	–	–	–	–	–	–	–	–
C=CCN1CCc2nc(N)sc2CC1 [talipexole]	0	–	0	–	> 10	–	> 10	–	103	107	98.1	100	100	–	–	–	–	–	102	104	99.2	106	102	–	–	–	–	–	–	–	–	–	–	–
COc1c(O[C@@H]2O[C@H](CO)[C@@H](O)[C@H](O)[C@H]2O)cc2c(c1OC)-c1ccc(SC)c(=O)cc1[C@@H](NC(C)=O)CC2 [thiocolchicoside]	0	0	0	0	> 10	> 10	> 10	> 10	102	104	99.1	106	103	102	93.2	98.7	102	97.8	96.1	96.4	82.7	102	94.5	97	100	91.4	97.2	90.9	–	–	–	–	–	–
O=C(O)CCCC[C@@H]1CCSS1 [thioctic-acid]	0.8	–	–	0	> 10	–	–	> 10	101	108	104	86.5	90.2	–	–	–	–	–	–	–	–	–	–	114	97.9	111	106	120	–	–	–	–	–	–
Cc1cccc(C)c1NC1=NCCCS1 [xylazine]	0	0	0	–	> 10	> 10	> 10	–	113	105	106	102	98.5	94.4	102	92.1	114	90.2	105	101	98.7	104	92.1	–	–	–	–	–	–	–	–	–	–	–
COC(=O)[C@@H]1[C@H]2C[C@H]3c4[nH]c5ccccc5c4CCN3C[C@@H]2CC[C@@H]1O [yohimbine]	0	0	–	0.3	> 10	> 10	–	> 10	110	105	101	101	98.6	103	100	113	108	96.9	–	–	–	–	–	110	113	110	94.5	87.4	–	–	–	–	–	–
